Here are results for 26 molecules from PubChem BioAssay AID296 (DTP/NCI, 2004).

Each structure is given as a SMILES string. Values joined by “and” are separate entries in the source; they are usually repeats but may differ in a detail not shown here. Equal values may be shown once. Inconclusive results are not listed.

The subject of this assay is MX-1 breast xenograft, nude mice, tumor weight T/C. Put plainly: NCI In Vivo Anticancer Drug Screen. Data for tumor model Human Mammary Carcinoma MX-1 Xenograft (intrarenal inoculation) in NU/NU Swiss (nude) mice. To be noted: endpoint: mean tumor weight change, higher = larger tumour. In short, it runs like this:
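Activity is given as a ratio, with each measurement in the compound-treated arm divided by the matching measurement in vehicle-dosed controls. Tumour size or survival serves as the measured parameter.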
(In xenograft studies the graft and the host belong to different species.)

Setting [1] is: dose: 75.0 mg/kg/injection, schedule: Q04DX003 (sc), vehicle: Klucel (hydroxypropylcellulose) (HPC).
Setting [2] is: dose: 600.0 mg/kg/injection, schedule: Q04DX003 (sc), vehicle: Klucel (hydroxypropylcellulose) (HPC).
[3] abbreviates: dose: 1200.0 mg/kg/injection, schedule: Q04DX003 (sc), vehicle: Klucel (hydroxypropylcellulose) (HPC).
Setting [4] is: dose: 150.0 mg/kg/injection, schedule: Q04DX003 (sc), vehicle: Klucel (hydroxypropylcellulose) (HPC).
Setting [5] is: dose: 300.0 mg/kg/injection, schedule: Q04DX003 (sc), vehicle: Klucel (hydroxypropylcellulose) (HPC).
Where [6] appears, read: dose: 18.75 mg/kg/injection, schedule: Q04DX003 (sc), vehicle: saline.
[7] abbreviates: dose: 37.5 mg/kg/injection, schedule: Q04DX003 (sc), vehicle: saline with Tween-80.
Where [8] appears, read: dose: 75.0 mg/kg/injection, schedule: Q04DX003 (sc), vehicle: saline with Tween-80.
Where [9] appears, read: dose: 150.0 mg/kg/injection, schedule: Q04DX003 (sc), vehicle: saline with Tween-80.
The mark [10] stands for this setting: dose: 100.0 mg/kg/injection, schedule: Q04DX003 (sc), vehicle: saline with Tween-80.
Where [11] appears, read: dose: 200.0 mg/kg/injection, schedule: Q04DX003 (sc), vehicle: saline with Tween-80.
Setting [12] is: dose: 400.0 mg/kg/injection, schedule: Q04DX003 (sc), vehicle: saline with Tween-80.
Where [13] appears, read: dose: 800.0 mg/kg/injection, schedule: Q04DX003 (sc), vehicle: saline with Tween-80.

For the molecule `O=c1[nH]cnc2c1ccn2C1OC(CO)C(O)C1O` (configuration not stated), the T/C (dose: 12.5 mg/kg/injection, schedule: Q04DX003 (sc), vehicle: saline) was 57 % of control and the T/C (dose: 25.0 mg/kg/injection, schedule: Q04DX003 (sc), vehicle: saline) is 71 % of control.

For `CSc1nc(=O)[nH]nc1SCc1ccccc1`, the T/C reads like this: (dose: 200.0 mg/kg/injection, schedule: Q04DX003 (sc), vehicle: Klucel (hydroxypropylcellulose) (HPC)) 100 % of control; (dose: 400.0 mg/kg/injection, schedule: Q04DX003 (sc), vehicle: Klucel (hydroxypropylcellulose) (HPC)) 87 % of control; (dose: 800.0 mg/kg/injection, schedule: Q04DX003 (sc), vehicle: Klucel (hydroxypropylcellulose) (HPC)) 69 % of control; (dose: 1600.0 mg/kg/injection, schedule: Q04DX003 (sc), vehicle: Klucel (hydroxypropylcellulose) (HPC)) 60 % of control.

As for `COc1nc(=O)n(C2C=CC(=O)O2)cc1F` (configuration not stated), the T/C under setting [1] is 116 % of control.

Consider `Clc1ccc(C2SC=Cc3ccccc32)cc1` (configuration not stated), for which the T/C is 90 % of control under setting [2] and 115 % of control under setting [3].

As for `CCc1ccc(C2=C(O)C(=O)C(c3ccccc3)=C(O)C2=O)cc1`, the T/C under setting [4] was 100 % of control, the T/C under setting [5] is 100 % of control and the T/C under setting [2] was 77 % of control.

`CCN(CC)c1ccc2cc(-c3nc4ccccc4n3C)c(=O)oc2c1`: the T/C reads like this: under setting [1], 119 % of control; under setting [4], 104 % of control; under setting [5], 123 % of control.

For `N=C(N)Sc1ccccn1`, the T/C (dose: 25.0 mg/kg/injection, schedule: Q01DX010 (sc), vehicle: saline) is 182 % of control.

Regarding `COc1cccc2c1C(=O)c1c(O)c3c(c(O)c1C2=O)C[C@@](O)(/C(C)=N/NC(=O)c1ccccc1)C[C@@H]3OC1CC(N)C(O)C(C)O1` (some centres not stated), the T/C (dose: 18.75 mg/kg/injection, schedule: Q04DX003 (sc), vehicle: water) is 73 % of control and the T/C (dose: 37.5 mg/kg/injection, schedule: Q04DX003 (sc), vehicle: water) was 25 % of control.

As for `CC(=O)OC(C)C1C2=C(C(=O)CC1(C)O)C(=O)c1c(ccc(-c3ccc4c(c3O)C(=O)C3=C(C4=O)C(C(C)OC(C)=O)C(C)(O)CC3=O)c1O)C2=O` (configuration not stated), the T/C is 33 % of control (dose: 7.5 mg/kg/injection, schedule: Q04DX003 (sc), vehicle: saline with Tween-80); 98 % of control (dose: 30.0 mg/kg/injection, schedule: Q04DX003 (sc), vehicle: saline with Tween-80); 96 % of control (dose: 60.0 mg/kg/injection, schedule: Q04DX003 (sc), vehicle: saline with Tween-80).

Turning to `CC(=O)C1(O)Cc2c(O)c3c(c(O)c2C(OC2CC(N)C(O)C(C)O2)C1)C(=O)c1ccccc1C3=O` (configuration not stated), the T/C is 104 % of control (dose: 0.5 mg/kg/injection, schedule: Q04DX003 (sc), vehicle: water) and 100 % of control (dose: 1.0 mg/kg/injection, schedule: Q04DX003 (sc), vehicle: water).

Take `Cc1ncc(CNC(=O)N(CCCl)N=O)c(N)n1`: the T/C (dose: 9.38 mg/kg/injection, schedule: Q04DX003 (sc), vehicle: saline) was 43 % of control and the T/C under setting [6] is 28 % of control.

As to `Cn1c2nc(=O)n(-c3ccccc3)c(=O)c-2nc2c1CCCC2`, the T/C was 104 % of control under setting [7], 111 % of control under setting [8] and 87 % of control under setting [9].

As for `O=C(O)C1Cc2nc[nH]c2CN1CO` (configuration not stated), the T/C is, setting by setting: under setting [10], 113 % of control; under setting [11], 113 % of control; under setting [12], 80 % of control; under setting [13], 99 % of control.

On to `Cn1cnc([N+](=O)[O-])c1[Se]c1nc(N)nc2nc[nH]c12`, for which, under “dose: 50.0 mg/kg/injection, schedule: Q01DX010 (sc), vehicle: water”, the T/C is 71 % of control.

In the case of `CO[C@H]1C[C@](C)(O)Cc2cc3c(c(O)c21)C(=O)c1c(O)cc2c(c1C3=O)O[C@@H]1O[C@@]2(C)[C@H](O)[C@@H](N(C)C)[C@@H]1O`, the T/C runs as follows: (dose: 3.13 mg/kg/injection, schedule: Q01DX010 (sc), vehicle: other) 93 % of control; (dose: 6.25 mg/kg/injection, schedule: Q01DX010 (sc), vehicle: other) 82 % of control; (dose: 12.5 mg/kg/injection, schedule: Q01DX010 (sc), vehicle: other) 43 % of control.

Take `N=C(N)CCCCCCCCC(=N)N`: the T/C under setting [6] is 124 % of control.

Consider `C=CCc1cn(C2CC(O)C(CO)O2)c(=O)[nH]c1=O` (configuration not stated), for which the T/C runs as follows: (dose: 300.0 mg/kg/injection, schedule: Q04DX003 (sc), vehicle: saline) 121 % of control; (dose: 600.0 mg/kg/injection, schedule: Q04DX003 (sc), vehicle: saline) 114 % of control; (dose: 1200.0 mg/kg/injection, schedule: Q04DX003 (sc), vehicle: saline) 93 % of control; (dose: 2400.0 mg/kg/injection, schedule: Q04DX003 (sc), vehicle: saline) 97 % of control.

As for `CC(C)CCCCCCCCCCCCC(=O)NCC(=O)NC1C(C)OC(Nc2ncnc3nc[nH]c23)C(O)C1O` (configuration not stated), the T/C reads like this: (dose: 1.0 mg/kg/injection, schedule: Q01DX010 (sc), vehicle: distilled water + Tween-80) 68 % of control; (dose: 2.0 mg/kg/injection, schedule: Q01DX010 (sc), vehicle: distilled water + Tween-80) 75 % of control; (dose: 4.0 mg/kg/injection, schedule: Q01DX010 (sc), vehicle: distilled water + Tween-80) 55 % of control; (dose: 8.0 mg/kg/injection, schedule: Q01DX010 (sc), vehicle: distilled water + Tween-80) 25 % of control.

For the molecule `CC[C@@]1(O)C[C@H](OC2CC(N(C)C)C(OC3CC(O)C(OC4CCC(=O)C(C)O4)C(C)O3)C(C)O2)c2c(cc3c(c2O)C(=O)c2c(O)cccc2C3=O)[C@H]1C(=O)OC` (some centres not stated), the T/C is, setting by setting: (dose: 0.25 mg/kg/injection, schedule: Q01DX010 (sc), vehicle: water) 91 % of control; (dose: 0.5 mg/kg/injection, schedule: Q01DX010 (ip), vehicle: water) 74 % of control and 78 % of control; (dose: 0.5 mg/kg/injection, schedule: Q01DX010 (sc), vehicle: water) 113 % of control; (dose: 1.0 mg/kg/injection, schedule: Q01DX010 (sc), vehicle: water) 35 % of control; (dose: 2.0 mg/kg/injection, schedule: Q01DX010 (ip), vehicle: water) 7 % of control; (dose: 4.0 mg/kg/injection, schedule: Q01DX010 (sc), vehicle: water) 65 % of control.

For `C/C(=N/NC(N)=S)c1ccc2ccccc2c1`, the T/C by setting is: (dose: 25.0 mg/kg/injection, schedule: Q01DX010 (sc), vehicle: saline with Tween-80) 75 % of control; (dose: 50.0 mg/kg/injection, schedule: Q01DX010 (sc), vehicle: saline with Tween-80) 81 % of control; (dose: 100.0 mg/kg/injection, schedule: Q01DX010 (sc), vehicle: saline with Tween-80) 29 % of control.

For the molecule `N[C@@H](Cc1c[nH]c2ccccc12)C(=O)Nc1nncs1`, the T/C (dose: 300.0 mg/kg/injection, schedule: Q04DX003 (ip), vehicle: suspension in saline) was 69 % of control and the T/C (dose: 600.0 mg/kg/injection, schedule: Q04DX003 (ip), vehicle: suspension in saline) was 50 % of control.

For `C[C@]12CCC(=O)C=C1CC[C@@H]1[C@@H]2C(=O)C[C@@]2(C)[C@H]1CC[C@]2(O)C(=O)CO`, the T/C by setting is: under setting [5], 108 % of control; under setting [2], 45 % of control.

For `CCC[P+](c1ccccc1)(c1ccccc1)c1ccccc1`, the T/C is, setting by setting: (dose: 18.75 mg/kg/injection, schedule: Q04DX003 (sc), vehicle: saline with Tween-80) 100 % of control; under setting [7], 73 % of control; under setting [8], 62 % of control; under setting [9], 54 % of control.

Consider `O=C(O[Si](Cc1ccccc1)(Cc1ccccc1)Cc1ccccc1)N(CCCl)CCCl`, for which the T/C was 78 % of control under setting [10] and 29 % of control under setting [11].

With `O=c1oc2c(O)c(O)cc3c(=O)oc4c(O)c(O)cc1c4c23`, the T/C reads like this: under setting [4], 115 % of control; under setting [5], 109 % of control; under setting [2], 67 % of control; under setting [3], 101 % of control.

Consider `Nc1nc2ccc(NCc3ccc(C(=O)NC(CCC(=O)O)C(=O)O)cc3)cc2c(=O)[nH]1` (configuration not stated), for which the T/C is 93 % of control under setting [10], 93 % of control under setting [11], 90 % of control under setting [12] and 23 % of control under setting [13].
